# In patent US20240009173A1, “Use of 5-HT3-Targeting Drugs for Treatment of Acute Kidney Injury” (priority 2020, published 2024):
# Read-outs that look alike come from different tables or passages of the source.
# What was measured:
# all ICU patients = conditions: cited from earlier work
# ICU patients with AKI = conditions: cited from earlier work
# [1] = system: patients without AKI on admission or prior to receiving drug; test: Anti-emetic usage and AKI risk in first ICU encounter: usage, max KDIGO category, binary logistic regression (Example 3); type: in vivo, human; conditions: for MAX KDIGO AKI Category 0 (%) / MAX KDIGO AKI Category 0, number of patients / MAX KDIGO AKI Category 1 (%) / MAX KDIGO AKI Category 1, number of patients / MAX KDIGO AKI Category 2 (%) / MAX KDIGO AKI Category 2, number of patients / MAX KDIGO AKI Category 3 (%) / MAX KDIGO AKI Category 3, number of patients: drug users, use before discharge/death or before AKI
# Source text: Study Population: The study population excludes patients with end-stage kidney disease and excludes patients with Acute Kidney Injury on admission or prior to receiving drug. […] Metoclopramide is primarily a dopamine D2 receptor antagonist anti-emetic. […] Prochlorperazine is primarily a dopamine receptor antagonist anti-emetic. […] This was a binary logistic regression with an outcome of experiencing any AKI within a first ICU encounter. The independent variable was use of anti-emetic prior to AKI (or before discharge if no AKI). […] The independent variable was use of anti-emetic prior to AKI (or before discharge if no AKI). […] The outcome was experiencing any AKI. The […] was the use of medication within the average time prior to AKI.
# ICU patients = test: Anti-emetic use and in-ICU death, logistic regression (Example 3); type: in vivo, human; conditions: outcome in-ICU death
# patients with AKI [2] = conditions: human, in vivo
# patients with AKI [3] = conditions: human, in vivo; remark: listed apart in the source
# Intestine of rats = conditions: cited from earlier work
# [4] = system: Fridericia-corrected QTc interval; conditions: 32 mg, 15 minute infusion, cited from earlier work
# patients with AKI [5] = test: Validation in eICU database: propensity score matching, chi-square test of ICU mortality (Example 4); type: in vivo, human
# patients with AKI [6] = system: patients with AKI; set-up: species or system human; conditions: in vivo
# [7] = literature and/or clinical trials
# [8] = outcome AKI Category 2 or 3 vs Category 0 or 1, use of anti-emetic prior to AKI (or before discharge)
# [9] = outcome any AKI within first ICU encounter, use of anti-emetic prior to AKI (or before discharge if no AKI)
# [10] = outcome any AKI, use of medication within the average time prior to AKI
# [11] = use of medication within average time prior to AKI
# [12] = use within average time prior to AKI and Apache Score on ICU admission
# [13] = 84 mg-kg in water by oral gavage 0.25d vs vehicle
# [14] = gene negatively correlated with eGFR in human AKI cohort
# [15] = rat intestine, 84 mg-kg oral gavage, 0.25d vs vehicle
# [16] = after matching, 3423 patients in group
compound,measurement,setting,value
CCN(CC)CCNC(=O)c1cc(Cl)c(N)cc1OC [Metoclopramide],Reported for protecting effect in all ICU patients,all ICU patients; [7],N
same,Reported for protecting effect in ICU patients with AKI,ICU patients with AKI; [7],N
same,MAX KDIGO AKI Category 0 (%),[1],(72.54) %
same,"MAX KDIGO AKI Category 0, number of patients",[1],"3,830"
same,MAX KDIGO AKI Category 1 (%),[1],(14.05) %
same,"MAX KDIGO AKI Category 1, number of patients",[1],742
same,MAX KDIGO AKI Category 2 (%),[1],(6.91) %
same,"MAX KDIGO AKI Category 2, number of patients",[1],365
same,MAX KDIGO AKI Category 3 (%),[1],(6.50) %
same,"MAX KDIGO AKI Category 3, number of patients",[1],343
same,Odds Ratio,[1]; [8],1.033
same,Odds Ratio,[1]; [9],0.408
same,Odds Ratio,[1]; [10],1.249
same,Odds Ratio,ICU patients; [11],1.270
same,Odds Ratio,ICU patients; [12],1.08
same,Death rate in MIMIC III database,patients with AKI [2],"248.67 per 1,000 patients"
same,Death rate in eICU database,patients with AKI [3],"158.32 per 1,000 patients"
Cc1nccn1CC1CCc2c(c3ccccc3n2C)C1=O (centres unmarked) [Ondansetron],Genes (differentially expressed genes in bioset),Intestine of rats; [13],"1,815"
same,down-regulated genes,Intestine of rats; [13],722
same,up-regulated genes,Intestine of rats; [13],"1,093"
same,Gene expression fold change by Ondansetron treatment: AMACR,Intestine of rats; [14],−2.38
same,Gene expression fold change by Ondansetron treatment: CASP1,Intestine of rats; [14],−8.03
same,Gene expression fold change by Ondansetron treatment: CPD,Intestine of rats; [14],−2.4
same,Gene expression fold change by Ondansetron treatment: GBP2,Intestine of rats; [14],−4.71
same,Gene expression fold change by Ondansetron treatment: KPNA2,Intestine of rats; [14],1.68
same,Gene expression fold change by Ondansetron treatment: MCL1,Intestine of rats; [14],−3.07
same,Gene expression fold change by Ondansetron treatment: MET,Intestine of rats; [14],−2.32
same,Gene expression fold change by Ondansetron treatment: TFPI,Intestine of rats; [14],4.25
same,gene expression fold change: Axin2,Intestine of rats; [15],2.12
same,gene expression fold change: Birc2,Intestine of rats; [15],−2.85
same,gene expression fold change: Casp3,Intestine of rats; [15],−4.18
same,gene expression fold change: Cdc42,Intestine of rats; [15],−1.7
same,gene expression fold change: Cdkn2b,Intestine of rats; [15],−3.79
same,gene expression fold change: Crk,Intestine of rats; [15],−2.78
same,gene expression fold change: Ctbp2,Intestine of rats; [15],−10.3
same,gene expression fold change: Ctnna1,Intestine of rats; [15],−2.95
same,gene expression fold change: Ctnnb1,Intestine of rats; [15],−6.88
same,gene expression fold change: Cycs,Intestine of rats; [15],−2.08
same,gene expression fold change: Erbb2,Intestine of rats; [15],−2.24
same,gene expression fold change: Fn1,Intestine of rats; [15],−10.3
same,gene expression fold change: Gsk3b,Intestine of rats; [15],2.3
same,gene expression fold change: Hdac1,Intestine of rats; [15],1.52
same,gene expression fold change: Itgb1,Intestine of rats; [15],−3.18
same,gene expression fold change: Jak1,Intestine of rats; [15],−10.7
same,gene expression fold change: Kras,Intestine of rats; [15],−2.58
same,gene expression fold change: Lamb2,Intestine of rats; [15],−4.03
same,gene expression fold change: Mapk1,Intestine of rats; [15],−4.09
same,gene expression fold change: Mapk3,Intestine of rats; [15],−1.98
same,gene expression fold change: Mapk9,Intestine of rats; [15],−5.48
same,gene expression fold change: Mecom,Intestine of rats; [15],1.46
same,gene expression fold change: Met,Intestine of rats; [15],−2.32
same,gene expression fold change: Msh2,Intestine of rats; [15],−2.29
same,gene expression fold change: Mtor,Intestine of rats; [15],−1.75
same,gene expression fold change: Pdgfrb,Intestine of rats; [15],1.49
same,gene expression fold change: Pik3r1,Intestine of rats; [15],−3.77
same,gene expression fold change: Plcg2,Intestine of rats; [15],−1.63
same,gene expression fold change: Pld1,Intestine of rats; [15],−5.95
same,gene expression fold change: Prkcb,Intestine of rats; [15],−3.73
same,gene expression fold change: Pten,Intestine of rats; [15],−4.92
same,gene expression fold change: Raf1,Intestine of rats; [15],1.51
same,gene expression fold change: Rb1,Intestine of rats; [15],−9.02
same,gene expression fold change: Smo,Intestine of rats; [15],−2.45
same,gene expression fold change: Sos2,Intestine of rats; [15],2.47
same,gene expression fold change: Tgfa,Intestine of rats; [15],−3.86
same,gene expression fold change: Tgfb1,Intestine of rats; [15],−1.54
same,gene expression fold change: Tgfb3,Intestine of rats; [15],1.83
same,gene expression fold change: Tpr,Intestine of rats; [15],−1.93
same,Reported for protecting effect in all ICU patients,all ICU patients; [7],N
same,maximum mean (upper limit of 90% CI) difference in QTcF from placebo after baseline-correction,[4]; at 20 minutes,19.6 (21.5) msec
same,period in which prolongation of QTcF was observed after start of infusion,[4],15 to 240 min
same,Alive (patients),patients with AKI [5]; [16],2993
same,Death (patients),patients with AKI [5]; [16],430
same,ICU mortality,"patients with AKI [5]; after propensity score matching, 3,423 patients per group",12.56%
same,Number Need to Treat (NNT),"patients with AKI [5]; eICU patients, 95% confidence interval 23.61, 103.72",38.46
same,Reported for protecting effect in ICU patients with AKI,ICU patients with AKI; [7],N
same,Coefficient,patients with AKI [6],−0.035
same,MAX KDIGO AKI Category 0 (%),[1],73.54%
same,"MAX KDIGO AKI Category 0, number of patients",[1],"32,447"
same,MAX KDIGO AKI Category 1 (%),[1],13.92%
same,"MAX KDIGO AKI Category 1, number of patients",[1],"6,143"
same,MAX KDIGO AKI Category 2 (%),[1],6.68%
same,"MAX KDIGO AKI Category 2, number of patients",[1],"2,946"
same,MAX KDIGO AKI Category 3 (%),[1],5.87%
same,"MAX KDIGO AKI Category 3, number of patients",[1],"2,588"
same,Odds Ratio,[1]; [9],0.403
same,Odds Ratio,[1]; [10],0.906
same,Odds Ratio,"[1]; outcome any AKI, use of medication within the average time prior to AKI, listed as ondansetron",protective
same,Odds Ratio,ICU patients; [11],0.460
same,Death rate in MIMIC III database,patients with AKI [2],"140.91 per 1,000 patients"
same,average death rate,patients with AKI [2],14.1%
same,Death rate in eICU database,patients with AKI [3],"124.87 per 1,000 patients"
CN1CCN(CCCN2c3ccccc3Sc3ccc(Cl)cc32)CC1 [Prochlorperazine],MAX KDIGO AKI Category 0 (%),[1],(73.48) %
same,"MAX KDIGO AKI Category 0, number of patients",[1],"2,488"
same,MAX KDIGO AKI Category 1 (%),[1],(14.77) %
same,"MAX KDIGO AKI Category 1, number of patients",[1],500
same,MAX KDIGO AKI Category 2 (%),[1],(5.88) %
same,"MAX KDIGO AKI Category 2, number of patients",[1],199
same,MAX KDIGO AKI Category 3 (%),[1],(5.88) %
same,"MAX KDIGO AKI Category 3, number of patients",[1],199
same,Odds Ratio,[1]; [8],0.90
same,Odds Ratio,[1]; [9],0.457
same,Odds Ratio,[1]; [10],0.988
same,Odds Ratio,ICU patients; [11],0.736
same,Odds Ratio,ICU patients; [12],0.879
COc1ccc2c3c1O[C@H]1C(=O)CC[C@@]4(O)[C@@H](C2)N(C)CC[C@]314 [Oxycodone],Reported for protecting effect in all ICU patients,all ICU patients,Y^9
same,Reported for protecting effect in ICU patients with AKI,ICU patients with AKI,N
same,Coefficient,patients with AKI [6],−0.089
same,Death rate in MIMIC III database,patients with AKI [2],"94.98 per 1,000 patients"
same,Death rate in eICU database,patients with AKI [3],"55.56 per 1,000 patients"
O=C(CCCN1CCC(O)(c2ccc(Cl)cc2)CC1)c1ccc(F)cc1 [Haloperidol],Reported for protecting effect in all ICU patients,all ICU patients; [7],N
same,Reported for protecting effect in ICU patients with AKI,ICU patients with AKI; [7],N
same,Coefficient,patients with AKI [6],−0.063
same,Death rate in MIMIC III database,patients with AKI [2],"194.85 per 1,000 patients"
same,Death rate in eICU database,patients with AKI [3],"201.23 per 1,000 patients"
CCCCC(CC)COC(=O)CC(C(=O)OCC(CC)CCCC)S(=O)(=O)O (centres unmarked) [Docusate],Reported for protecting effect in all ICU patients,all ICU patients; [7],N
same,Reported for protecting effect in ICU patients with AKI,ICU patients with AKI; [7],N
same,Coefficient,patients with AKI [6],−0.028
same,Death rate in MIMIC III database,patients with AKI [2],"178.57 per 1,000 patients"
same,Death rate in eICU database,patients with AKI [3],"136.48 per 1,000 patients"
NCCCC[C@H](N[C@@H](CCc1ccccc1)C(=O)O)C(=O)N1CCC[C@H]1C(=O)O [Lisinopril],Reported for protecting effect in all ICU patients,all ICU patients; [7],Y^14
same,Reported for protecting effect in ICU patients with AKI,ICU patients with AKI; [7],Y^15
same,Coefficient,patients with AKI [6],−0.049
same,Death rate in MIMIC III database,patients with AKI [2],"53.11 per 1,000 patients"
same,Death rate in eICU database,patients with AKI [3],"21.71 per 1,000 patients"
O=S(=O)([O-])[O-].[Mg+2] [Magnesium Sulfate],Reported for protecting effect in all ICU patients,all ICU patients,Y^3
same,Reported for protecting effect in ICU patients with AKI,ICU patients with AKI,Y^4
same,Coefficient,patients with AKI [6],−0.054
same,Death rate in MIMIC III database,patients with AKI [2],"203.36 per 1,000 patients"
same,Death rate in eICU database,patients with AKI [3],"172.14 per 1,000 patients"
Cc1ncc2n1-c1ccc(Cl)cc1C(c1ccccc1F)=NC2 [Midazolam],Reported for protecting effect in all ICU patients,all ICU patients,Y^20
same,Reported for protecting effect in ICU patients with AKI,ICU patients with AKI,N
same,Coefficient,patients with AKI [6],0.027
same,Death rate in MIMIC III database,patients with AKI [2],"899.95 per 1,000 patients"
same,Death rate in eICU database,patients with AKI [3],"273.07 per 1,000 patients"
